Data reported in patent publication US20250289789A1, “REVERSIBLE LYSINE COVALENT MODIFIERS OF CDK2 AND USES THEREOF” (Terremoto Biosciences, Inc., priority 2023, published 2025).
pIC50: −log10 of the molar value. Like-named read-outs stand apart in the source and are kept apart here.

Tests used:
Type in all cases: cell-based
[1] = molecular target: T1, CDK2-NanoLuc fusion with CCNE1 in 293T or 293 cells (Homo sapiens, UniProt P24941); assay: NanoBRET Target Engagement (TE) Intracellular Kinase Assay, CDK2/CCNE1; details: NanoBRET TE intracellular kinase assay, 2-hour incubation, read-out: NanoBRET-CDK2/E1 IC50
T1 construct: host or cells: 293T (ATCC CRL-3216) or 293 (ATCC CRL-1573)

[2] = molecular target: T2, CDK1-NanoLuc fusion with CCNB1 in 293T or 293 cells (Homo sapiens, UniProt P06493); assay: NanoBRET Target Engagement (TE) Intracellular Kinase Assay, CDK1/CCNB1; details: NanoBRET TE intracellular kinase assay, 2-hour incubation, read-out: NanoBRET-CDK1/B1 IC50
T2 construct: host or cells: 293T (ATCC CRL-3216) or 293 (ATCC CRL-1573)
Experimental: Inhibitory effects of compounds were measured in NanoBRET TE Intracellular Kinase Assay. 293T (ATCC; CRL-3216) or 293 (ATCC; CRL-1573) cell lines were maintained in 90% DMEM and 10% fetal bovine serum at 37° C., 5% CO2, and 95% relative humidity. Cells were trypsinized and resuspended in assay media (99% Opti-MEM I Reduced Serum Medium, no phenol red, and 1% fetal bovine serum). Cells were co-transfected with 1 μg/mL of CDK-NanoLuc Fusion Vector (Promega; NV2701 for CDK1, NV2781 for CDK2, NV2811 for CDK4, NV2841 for CDK6) and 1 μg/mL of the corresponding Cyclin Expression Vector (Promega; NV2601 for CCNB1, NV2641 for CCNE1, NV2621 for CCND1, NV2631 for CCND3) using FuGENE HD Transfection Reagent (Promega; E2311). 40 uL/well of cells with transfection mixture were seeded in 384-well plates at 1.25×10^5 to 2×10^5 cells/mL and incubated for 24 hours at 37° C., 5% CO2, and 95% relative humidity. On the next day, 100 nL of 100 μM NanoBRET Tracer K-10 (Promega; N2640) and 40 nL of 1000× test compounds prepared in DMSO were added to the cells in each well of 384-well plates for a 2-hour incubation at 37° C., 5% CO2, and 95% relative humidity. 20 uL/well of 3× Intracellular TE Nano-Glo Substrate/Inhibitor (Promega; N2162) were added to 384-well plates and incubated for 3 minutes at room temperature. NanoBRET signals (donor emission wavelength at 450 nm, acceptor emission wavelength at 610 nm) were measured using Envision plate reader (PerkinElmer). NanoBRET ratio was calculated by: BRET Ratio=raw signal for acceptor/raw signal for donor. Dose response curve normalized to DMSO control was plotted using four-parameter logistic model for IC50 calculation.

[3] = system: Phospho-Rb Ser807/811 in OVCAR3 cells; assay: OVCAR3 Phospho-Rb Ser807/811 HTRF assay; details: Homo sapiens, read-out: pRb-OVCAR3 IC50
Experimental: Cells were trypsinized and resuspended in 1 mM hydroxyurea (Sigma; H8627), 90% RPMI and 10% fetal bovine serum. […] Dose response curve normalized to DMSO control was plotted using four-parameter logistic model for IC50 calculation.

[4] = molecular target: T3, CDK4-NanoLuc fusion with CCND1 in 293T or 293 cells (Homo sapiens, UniProt P11802); assay: NanoBRET Target Engagement (TE) Intracellular Kinase Assay, CDK4/CCND1; details: NanoBRET TE intracellular kinase assay, 2-hour incubation, read-out: NanoBRET-CDK4/D1 IC50
T3 construct: host or cells: 293T (ATCC CRL-3216) or 293 (ATCC CRL-1573)

[5] = OVCAR-3, 1 h, OVCAR3 cells, Phospho-Rb Ser807/811 HTRF, 1 hour incubation

T2 sequence (P06493 whole entry, the tested form may be a part): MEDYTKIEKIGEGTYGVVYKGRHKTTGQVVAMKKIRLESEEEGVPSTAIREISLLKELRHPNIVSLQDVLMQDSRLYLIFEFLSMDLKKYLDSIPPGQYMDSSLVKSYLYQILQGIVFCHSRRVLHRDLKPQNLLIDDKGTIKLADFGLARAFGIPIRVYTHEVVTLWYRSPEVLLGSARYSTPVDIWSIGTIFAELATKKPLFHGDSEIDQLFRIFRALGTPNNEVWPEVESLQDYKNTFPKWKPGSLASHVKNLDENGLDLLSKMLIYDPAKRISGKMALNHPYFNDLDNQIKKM
T2 sequence (P14635 whole entry partner, the tested form may be a part): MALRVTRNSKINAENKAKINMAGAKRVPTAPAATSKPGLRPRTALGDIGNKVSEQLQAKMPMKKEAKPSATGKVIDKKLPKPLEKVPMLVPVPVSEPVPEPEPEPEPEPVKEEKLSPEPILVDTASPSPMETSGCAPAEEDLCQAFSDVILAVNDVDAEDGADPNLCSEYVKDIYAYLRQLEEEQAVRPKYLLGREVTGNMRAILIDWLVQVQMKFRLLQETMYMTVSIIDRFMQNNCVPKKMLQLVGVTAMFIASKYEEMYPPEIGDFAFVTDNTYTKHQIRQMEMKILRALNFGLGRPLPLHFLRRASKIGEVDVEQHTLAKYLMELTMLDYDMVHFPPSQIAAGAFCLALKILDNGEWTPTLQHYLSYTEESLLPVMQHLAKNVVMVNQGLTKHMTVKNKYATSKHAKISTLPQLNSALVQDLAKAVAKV
T3 sequence (P11802 whole entry, the tested form may be a part): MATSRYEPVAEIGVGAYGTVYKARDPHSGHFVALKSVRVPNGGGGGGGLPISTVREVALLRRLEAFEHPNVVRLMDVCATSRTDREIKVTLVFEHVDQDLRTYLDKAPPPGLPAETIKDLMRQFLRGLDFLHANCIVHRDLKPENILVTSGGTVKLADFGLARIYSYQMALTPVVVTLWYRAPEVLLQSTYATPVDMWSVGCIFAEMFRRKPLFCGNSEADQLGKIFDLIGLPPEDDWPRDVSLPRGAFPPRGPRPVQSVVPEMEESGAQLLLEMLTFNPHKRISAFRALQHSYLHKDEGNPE
T3 sequence (P24385 whole entry partner, the tested form may be a part): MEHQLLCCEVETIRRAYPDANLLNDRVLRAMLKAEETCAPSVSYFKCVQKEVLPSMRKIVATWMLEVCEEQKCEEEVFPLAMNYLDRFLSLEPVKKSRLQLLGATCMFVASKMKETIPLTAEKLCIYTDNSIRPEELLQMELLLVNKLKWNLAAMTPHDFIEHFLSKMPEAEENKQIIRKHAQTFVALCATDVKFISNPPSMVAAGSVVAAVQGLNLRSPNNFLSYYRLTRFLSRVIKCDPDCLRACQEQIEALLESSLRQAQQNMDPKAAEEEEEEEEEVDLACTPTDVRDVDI

pIC50 [1] | pIC50 [2] | pIC50 [3, 5] | pIC50 [4] | SMILES | pIC50 ([3]; OVCAR-3, 1 h) | pIC50 ([3]; OVCAR-3, OVCAR3 cells, Phospho-Rb Ser807/811 HTRF, 1 hour incubation)
8.37 | 7.81 | 6.51 | 5.48 | COc1cccc(-c2cc(C(=O)Nc3cc([C@H]4CC[C@@H](OC(=O)NC(C)C)C4)[nH]n3)n(C)n2)c1C=O [Compound 106, (1R,3S)-3-{5-[5-(2-formyl-3-methoxyphenyl)-2-methylpyrazole-3-amido]-2H-pyrazol-3-yl}cyclopentyl N-isopropylcarbamate; trifluoroacetic acid] | – | –
7.62 | 6.27 | 5.38 | 5.40 | CC(C)NC(=O)O[C@@H]1CC[C@H](c2cc(NC(=O)OCCc3cccc(O)c3C=O)n[nH]2)C1 [Compound 35, 2-(2-formyl-3-hydroxyphenyl)ethyl N-{5-[(1S,3R)-3-[(isopropylcarbamoyl)oxy]cyclopentyl]-1H-pyrazol-3-yl}carbamate; trifluoroacetic acid] | – | –
7.53 | 7.30 | 6.35 | 5.33 | CC(C)NC(=O)O[C@@H]1CC[C@H](c2cc(NC(=O)C3C[C@H]3c3cccc(O)c3C=O)n[nH]2)C1 (stereo in doubt) [Compound 9, (1R,3S)-3-{5-[(1R,2R)-2-(2-formyl-3-hydroxyphenyl)cyclopropaneamido]-2H-pyrazol-3-yl}cyclopentyl N-isopropylcarbamate] | – | –
8.88 | 8.32 | 7.12 | < 5.00 | Cc1ccc(OCC(=O)Nc2cc([C@H]3CC[C@@H](OC(=O)NC(C)C)C3)[nH]n2)c(C=O)c1O [Compound 56, (1R,3S)-3-(3-(2-(2-formyl-3-hydroxy-4-methylphenoxy)acetamido)-1H-pyrazol-5-yl)cyclopentyl isopropylcarbamate] | – | –
8.07 | 7.55 | 6.50 | 5.33 | Cc1sc(-c2cccc(O)c2C=O)nc1C(=O)Nc1cc([C@H]2CC[C@@H](OC(=O)NC(C)C)C2)[nH]n1 [Compound 65, (1R,3S)-3-(3-(2-(2-formyl-3-hydroxyphenyl)-5-methylthiazole-4-carboxamido)-1H-pyrazol-5-yl)cyclopentyl isopropylcarbamate] | – | –
8.02 | 6.44 | 5.90 | 5.20 | CC(C)NC(=O)O[C@@H]1CC[C@H](c2cc(NC(=O)OCc3cccc(O)c3C=O)n[nH]2)C1 [Compound 63, (2-formyl-3-hydroxyphenyl)methyl N-{5-[(1S,3R)-3-[(isopropylcarbamoyl)oxy]cyclopentyl]-1H-pyrazol-3-yl}carbamate] | – | –
8.19 | 7.82 | 6.64 | 5.44 | CCn1nc(-c2cccc(O)c2C=O)cc1C(=O)Nc1cc([C@H]2CC[C@@H](OC(=O)NC(C)C)C2)[nH]n1 [Compound 60, (1R,3S)-3-{5-[2-ethyl-5-(2-formyl-3-hydroxyphenyl)pyrazole-3-amido]-2H-pyrazol-3-yl}cyclopentyl N-isopropylcarbamate; trifluoroacetic acid] | – | –

Further lines, the compound ahead of its results:

SMILES | pIC50 [1] | pIC50 [2] | pIC50 [3, 5] | pIC50 [4] | pIC50 ([3]; OVCAR-3, 1 h) | pIC50 ([3]; OVCAR-3, OVCAR3 cells, Phospho-Rb Ser807/811 HTRF, 1 hour incubation)
CC(C)NC(=O)O[C@@H]1CC[C@H](c2cc(NC(=O)Cc3ccc(O)c(C=O)c3)n[nH]2)C1 [Compound 5, (1R,3S)-3-{5-[2-(3-formyl-4-hydroxyphenyl)acetamido]-2H-pyrazol-3-yl}cyclopentyl N-isopropylcarbamate] | 8.18 | 8.26 | – | 7.28 | 6.73 | –
COCC1(NC(=O)O[C@@H]2CC[C@H](c3cc(NC(=O)COc4cc(OC)cc(O)c4C=O)n[nH]3)C2)CCC1 (stereo in doubt) [Compound 198] | 8.72 | 8.15 | 7.41 | 5.49 | – | –
COc1cc(OC)c(C=O)c(OCC(=O)Nc2cc([C@H]3C[C@@H](OC(=O)N4CCC4(C)C)C3)[nH]n2)c1 [Compound 109, (1s,3s)-3-(3-(2-(2-formyl-3,5-dimethoxyphenoxy)acetamido)-1H-pyrazol-5-yl)cyclobutyl 2,2-dimethylazetidine-1-carboxylate] | 8.73 | 8.38 | 7.75 | 5.36 | – | –
CCCNC(=O)O[C@@H]1CC[C@H](c2cc(NC(=O)COc3cccc(O)c3C=O)n[nH]2)C1 [Compound 81, (1R,3S)-3-{5-[2-(2-formyl-3-hydroxyphenoxy)acetamido]-2H-pyrazol-3-yl}cyclopentyl N-propylcarbamate; trifluoroacetic acid] | 8.64 | 7.73 | 6.92 | < 5.00 | – | –
COc1cc(O)c(C=O)c(OCC(=O)Nc2cc([C@H]3CC[C@@H](OC(=O)N4C[C@@H]5CC[C@H]4C5)C3)[nH]n2)c1 [Compound 219] | 8.71 | 8.37 | 7.65 | 6.07 | – | –
Cc1cc(C(=O)Nc2cc([C@H]3CC[C@@H](OC(=O)NC(C)C)C3)[nH]n2)cc(C=O)c1O [Compound 15, (1R,3S)-3-(3-(3-formyl-4-hydroxy-5-methylbenzamido)-1H-pyrazol-5-yl)cyclopentyl isopropylcarbamate trifluoroacetic acid] | 8.58 | 7.60 | 6.95 | 5.74 | – | –
COc1cc(O)c(C=O)c(-n2cc(CC(=O)Nc3cc([C@H]4CC[C@@H](OC(=O)NC(C)C)C4)[nH]n3)cn2)c1 [Compound 79, (1R,3S)-3-(5-{2-[1-(2-formyl-3-hydroxy-5-methoxyphenyl)pyrazol-4-yl]acetamido}-2H-pyrazol-3-yl) cyclopentyl N-isopropylcarbamate] | 7.85 | 7.33 | – | 6.14 | 6.30 | –
CC(C)NC(=O)O[C@@H]1CC[C@H](c2cc(NC(=O)c3cnn(-c4cccc(O)c4C=O)c3)n[nH]2)C1 [Compound 8, (1R,3S)-3-{5-[1-(2-formyl-3-hydroxyphenyl)pyrazole-4-amido]-2H-pyrazol-3-yl}cyclopentyl N-isopropylcarbamate; trifluoroacetic acid] | 7.60 | 7.13 | – | 5.26 | – | 6.06
C#CC1(NC(=O)O[C@@H]2CC[C@H](c3cc(NC(=O)COc4cc(OC)cc(O)c4C=O)n[nH]3)C2)CC1 [Compound 218] | 8.63 | 8.26 | 7.74 | 5.54 | – | –
CC(C)(C)NC(=O)O[C@@H]1CC[C@H](c2cc(NC(=O)COc3cccc(O)c3C=O)n[nH]2)C1 [Compound 84, (1R,3S)-3-(3-(2-(2-formyl-3-hydroxyphenoxy)acetamido)-1H-pyrazol-5-yl)cyclopentyl tert-butylcarbamate] | 8.23 | 7.82 | 6.64 | 5.28 | – | –
CC(=O)Nc1cc(C(=O)Nc2cc([C@H]3CC[C@@H](OC(=O)NC(C)C)C3)[nH]n2)ccc1C=O [Compound 37, (1R,3S)-3-(3-(3-acetamido-4-formylbenzamido)-1H-pyrazol-5-yl)cyclopentyl isopropylcarbamate] | 7.81 | 6.75 | 6.46 | 6.89 | – | –
